The target in the first experiment is T1, full length human TPH1 (Homo sapiens, UniProt P17752).
T1 construct: To generate the enzyme, full length human TPH1 is cloned into the plasmid pET20b(+); made in house; host or cells: E. coli
T1 sequence (P17752 1-444): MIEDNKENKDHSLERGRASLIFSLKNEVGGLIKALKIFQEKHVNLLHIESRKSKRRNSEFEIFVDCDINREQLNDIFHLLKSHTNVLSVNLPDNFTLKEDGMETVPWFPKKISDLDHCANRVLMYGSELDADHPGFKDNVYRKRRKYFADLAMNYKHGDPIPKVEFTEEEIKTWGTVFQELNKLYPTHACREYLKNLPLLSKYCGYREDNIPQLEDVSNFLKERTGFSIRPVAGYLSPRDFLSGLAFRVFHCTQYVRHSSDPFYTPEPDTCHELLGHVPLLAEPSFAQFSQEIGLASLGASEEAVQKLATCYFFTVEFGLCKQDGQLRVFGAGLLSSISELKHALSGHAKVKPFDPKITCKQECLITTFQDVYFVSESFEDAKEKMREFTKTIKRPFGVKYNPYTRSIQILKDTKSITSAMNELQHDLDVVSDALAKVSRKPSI
The experiment in a line: Biochemical in vitro assay using fluorescence readout (TPH1 enzyme activity). The note with it: Table 1, mean where determined several times. In outline: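 E. coli-expressed full-length human TPH1 (40-80 nM), affinity- and size-exclusion-purified, incubated 60 min at 15° C. in 0.1M Tris-HCl pH 7.6 with 1 mM DTT, 0.2 mg/ml catalase, 100 μM 6-methyltetrahydropterine and 40 μM L-tryptophan. 5-Hydroxy-L-tryptophan read by fluorescence (ex 300/em 540 nm) after HClO4 quench; IC50 versus vehicle, mean where repeated.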
In turn, `Cc1ccc(C2c3c(nc4n3CCNC4)CCN2C(=O)COc2ccc(CN3CCOCC3)cc2Cl)c(F)c1` (stereo not shown) [Example 5.12.2, 2-(2-chloro-4-(morpholinomethyl)phenoxy)-1-(1-(2-fluoro-4-methylphenyl)-3,4,6,7,8,9-hexahydropyrido[4′,3′:4,5]imidazo[1,2-a]pyrazin-2(1H)-yl)ethanone] returned an IC50 of 0.052 µM. This counts as double-digit nanomolar.
Same read-out and setting: to `CC(=O)N1CCn2c(nc3c2C(c2ccc(C)cc2F)N(C(=O)COc2ccc(CN4CCOCC4)cc2Cl)CC3)C1` (stereo not shown) [Example 5.12.3, 1-(7-acetyl-1-(2-fluoro-4-methylphenyl)-3,4,6,7,8,9-hexahydropyrido[4′,3′:4,5]imidazo[1,2-a]pyrazin-2(1H)-yl)-2-(2-chloro-4-(morpholinomethyl)phenoxy)ethanone] belongs 0.015 µM; to `CC(=O)N1CCn2c(nc3c2C(c2sccc2F)N(C(=O)COc2ccc(N4CCOCC4)nc2Cl)CC3)C1` (stereo not shown) [Example 5.13.1, 1-(7-acetyl-1-(3-fluorothiophen-2-yl)-3,4,6,7,8,9-hexahydropyrido[4′,3′:4,5]imidazo[1,2-a]pyrazin-2(1H)-yl)-2-((2-chloro-6-morpholinopyridin-3-yl)oxy)ethanone], 0.006 µM; to `CC(=O)N1CCn2c(nc3c2C(c2sccc2F)N(C(=O)COc2ccc(C(=O)N(C)C)nc2Cl)CC3)C1` (stereo not shown) [Example 5.13.2, 5-(2-(7-acetyl-1-(3-fluorothiophen-2-yl)-3,4,6,7,8,9-hexahydropyrido[4′,3′:4,5]imidazo[1,2-a]pyrazin-2(1H)-yl)-2-oxoethoxy)-6-chloro-N,N-dimethylpicolinamide], 0.024 µM.
`CC(=O)N1CCn2c(nc3c2C(c2ccc(Cl)cn2)N(C(=O)COc2ccc(N4CCOCC4)nc2Cl)CC3)C1` (stereo not shown) [Example 5.15.1, 1-(7-acetyl-1-(5-chloropyridin-2-yl)-3,4,6,7,8,9-hexahydropyrido[4′,3′:4,5]imidazo[1,2-a]pyrazin-2(1H)-yl)-2-((2-chloro-6-morpholinopyridin-3-yl)oxy)ethanone] displayed a concentration for half-maximal inhibition (IC50) of 0.011 µM.
On the same count and under the same terms, to `CC(=O)N1CCn2c(nc3c2C(c2cc(Cl)ccn2)N(C(=O)COc2ccc(N4CCOCC4)nc2Cl)CC3)C1` (stereo not shown) [Example 5.16.1, 1-(7-acetyl-1-(4-chloropyridin-2-yl)-3,4,6,7,8,9-hexahydropyrido[4′,3′:4,5]imidazo[1,2-a]pyrazin-2(1H)-yl)-2-((2-chloro-6-morpholinopyridin-3-yl)oxy)ethanone] belongs 0.048 µM.
The same measure, in the same setting: the same measure for `CC(=O)N1CCn2c(nc3c2C(c2sc(C)nc2C)N(C(=O)COc2ccc(-c4ncco4)nc2Cl)CC3)C1` (stereo not shown) [Example 5.17.1, 1-(7-acetyl-1-(2,4-dimethylthiazol-5-yl)-3,4,6,7,8,9-hexahydropyrido[4′,3′:4,5]imidazo[1,2-a]pyrazin-2(1H)-yl)-2-((2-chloro-6-(oxazol-2-yl)pyridin-3-yl)oxy)ethanone]: 0.027 µM; for `O=C(COc1ccc(N2CCOCC2)nc1Cl)N1CCc2nc3n(c2C1c1ccc(Cl)cc1F)CCOC3` (stereo not shown) [Example 6.1.1, 1-(6-(4-chloro-2-fluorophenyl)-3,4,8,9-tetrahydro-1 H-pyrido[4′,3′:4,5]imidazo[2,1-c][1,4]oxazin-7(6H)-yl)-2-((2-chloro-6-morpholinopyridin-3-yl)oxy)ethanone]: 0.004 µM.
Same read-out and setting: to `CS(=O)(=O)Nc1ccc(OCC(=O)N2CCc3nc4n(c3C2c2ccc(Cl)cc2F)CCOC4)c(Cl)n1` (stereo not shown) [Example 6.1.2, N-(6-chloro-5-(2-(6-(4-chloro-2-fluorophenyl)-3,4,8,9-tetrahydro-1H-pyrido[4′,3′:4,5]imidazo[2,1-c][1,4]oxazin-7(6H)-yl)-2-oxoethoxy)pyridin-2-yl)methanesulfonamide] belongs 0.018 µM; to `O=C(COc1ccc(N2CCOCC2)nc1Cl)N1CCc2nc3n(c2C1c1ccc(C2CC2)cc1F)CCOC3` (stereo not shown) [Example 6.2.1, 2-((2-chloro-6-morpholinopyridin-3-yl)oxy)-1-(6-(4-cyclopropyl-2-fluorophenyl)-3,4,8,9-tetrahydro-1H-pyrido[4′,3′:4,5]imidazo[2,1-c][1,4]oxazin-7(6H)-yl)ethanone], 0.004 µM.
`CN(C)C(=O)c1ccc(OCC(=O)N2CCc3nc4n(c3C2c2ccc(C3CC3)cc2F)CCOC4)c(Cl)c1` (stereo not shown) [Example 6.2.2, 3-chloro-4-(2-(6-(4-cyclopropyl-2-fluorophenyl)-3,4,8,9-tetrahydro-1H-pyrido[4′,3′:4,5]imidazo[2,1-c][1,4]oxazin-7(6H)-yl)-2-oxoethoxy)-N,N-dimethylbenzamide]: inhibition was half-maximal at 0.013 µM (IC50).
Still for that read-out and setting: to `CN(C)C(=O)c1ccc(OCC(=O)N2CCc3nc4n(c3C2c2ccc(C3CC3)cc2F)CCOC4)c(Cl)n1` (stereo not shown) [Example 6.2.3, 6-chloro-5-(2-(6-(4-cyclopropyl-2-fluorophenyl)-3,4,8,9-tetrahydro-1H-pyrido[4′,3′:4,5]imidazo[2,1-c][1,4]oxazin-7(6H)-yl)-2-oxoethoxy)-N,N-dimethylpicolinamide] belongs 0.003 µM; to `CN(C)C(=O)c1ccc(OCC(=O)N2CCc3nc4n(c3C2c2sc(C(=O)N(C)C)cc2F)CCOC4)c(Cl)n1` (stereo not shown) [Example 6.3.1, 6-chloro-5-(2-(6-(5-(dimethylcarbamoyl)-3-fluoro-thiophen-2-yl)-3,4,8,9-tetrahydro-1H-pyrido[4′,3′:4,5]imidazo[2,1-c][1,4]oxazin-7(6H)-yl)-2-oxoethoxy)-N,N-dimethylpicolinamide], 0.037 µM; to `CS(=O)(=O)Nc1ccc(OCC(=O)N2CCc3nc4n(c3C2c2ncc(Cl)cc2F)CCOC4)c(Cl)n1` (stereo not shown) [Example 6.4.1, N-(6-chloro-5-(2-(6-(5-chloro-3-fluoropyridin-2-yl)-3,4,8,9-tetrahydro-1H-pyrido[4′,3′:4,5]imidazo[2,1-c][1,4]oxazin-7(6H)-yl)-2-oxoethoxy)pyridin-2-yl)methanesulfonamide], 0.143 µM.
With `CN(C)C(=O)c1ccc(OCC(=O)N2CCc3nc4n(c3C2c2ncc(Cl)cc2F)CCOC4)c(Cl)n1` (stereo not shown) [Example 6.4.2, 6-chloro-5-(2-(6-(5-chloro-3-fluoropyridin-2-yl)-3,4,8,9-tetrahydro-1H-pyrido[4′,3′:4,5]imidazo[2,1-c][1,4]oxazin-7(6H)-yl)-2-oxoethoxy)-N,N-dimethylpicolinamide], the IC50 was 0.076 µM.
Same read-out and setting: the same measure for `Cc1ccc(C2c3c(nc4n3CCOC4)CCN2C(=O)COc2ccc(C(=O)N(C)C)nc2Cl)c(F)c1` (stereo not shown) [Example 6.5.1, 6-chloro-5-(2-(6-(2-fluoro-4-methylphenyl)-3,4,8,9-tetrahydro-1H-pyrido[4′,3′:4,5]imidazo[2,1-c][1,4]oxazin-7(6H)-yl)-2-oxoethoxy)-N,N-dimethylpicolinamide]: 0.007 µM.
Still for that read-out and setting: to `O=C(COc1ccc(N2CCOCC2)nc1Cl)N1CCc2nc3n(c2C1c1sccc1F)CCOC3` (stereo not shown) [Example 6.6.1, 2-((2-chloro-6-morpholinopyridin-3-yl)oxy)-1-(6-(3-fluorothiophen-2-yl)-3,4,8,9-tetrahydro-1H-pyrido[4′,3′:4,5]imidazo[2,1-c][1,4]oxazin-7(6H)-yl)ethanone] belongs 0.008 µM.
Same read-out and setting: to `CN(C)C(=O)c1ccc(OCC(=O)N2CCc3nc4n(c3C2c2sccc2F)CCOC4)c(Cl)n1` (stereo not shown) [Example 6.6.2, 6-chloro-5-(2-(6-(3-fluorothiophen-2-yl)-3,4,8,9-tetrahydro-1H-pyrido[4′,3′:4,5]imidazo[2,1-c][1,4]oxazin-7(6H)-yl)-2-oxoethoxy)-N,N-dimethylpicolinamide] belongs 0.029 µM; to `CS(=O)(=O)Nc1ccc(OCC(=O)N2CCc3nc4n(c3C2c2sccc2F)CCOC4)c(Cl)n1` (stereo not shown) [Example 6.6.3, N-(6-chloro-5-(2-(6-(3-fluorothiophen-2-yl)-3,4,8,9-tetrahydro-1H-pyrido[4′,3′:4,5]imidazo[2,1-c][1,4]oxazin-7(6H)-yl)-2-oxoethoxy)pyridin-2-yl)methanesulfonamide], 0.16 µM.

The experiment is the same for the next values; noted with them: Table 2.
Turning to `CC(C)(C)OC(=O)N1CCn2c(nc3c2C(c2cc(C(=O)NC#N)cs2)N(C(=O)COc2ccc(N4CCOCC4)nc2Cl)CC3)C1` (stereo not shown) [Example 5.14.1, Tert-butyl 2-(2-((2-chloro-6-morpholinopyridin-3-yl)oxy)acetyl)-1-(4-(cyanocarbamoyl)thiophen-2-yl)-1,2,3,4,8,9-hexahydropyrido[4′,3′:4,5]imidazo[1,2-a]pyrazine-7(6H)-carboxylate], the IC50 came out at 0.341 µM. In other words, the sub-micromolar range.

A further experiment concerns 5HT.
Assay: not given
The note with it: mice; cited from earlier work.
Consider `Nc1nc(OC(c2ccc(-c3cccc(F)c3)cc2)C(F)(F)F)cc(-c2ccc(C[C@H](N)C(=O)O)cc2)n1` (stereo partly shown) [LP533401], for which the “brain 5HT concentrations” value is reported as “without effecting brain concentrations” and the “gut 5HT” value was “lower gut 5HT”.
